Results as given in publication PMC9246256, “Structure-based optimization of type III indoleamine 2,3-dioxygenase 1 (IDO1) inhibitors” (Journal of Enzyme Inhibition and Medicinal Chemistry, 2022).
Where “and” joins values, the source holds several entries; their conditions need not be identical. Equal entries are not always repeated.

How the values were obtained:
hIDO1 = target: T1, hIDO1 (Homo sapiens, UniProt P14902); assay: Cellular hIDO1 inhibition (kynurenine production) in transiently transfected HEK 293 T cells; format: cell-based
T1 construct: The full ORF of hIDO1 was cloned into the mammalian expression vector pcDNA6/myc-His; myc-His (vector-encoded); host or cells: HEK 293 T
T1 sequence (P14902 whole entry): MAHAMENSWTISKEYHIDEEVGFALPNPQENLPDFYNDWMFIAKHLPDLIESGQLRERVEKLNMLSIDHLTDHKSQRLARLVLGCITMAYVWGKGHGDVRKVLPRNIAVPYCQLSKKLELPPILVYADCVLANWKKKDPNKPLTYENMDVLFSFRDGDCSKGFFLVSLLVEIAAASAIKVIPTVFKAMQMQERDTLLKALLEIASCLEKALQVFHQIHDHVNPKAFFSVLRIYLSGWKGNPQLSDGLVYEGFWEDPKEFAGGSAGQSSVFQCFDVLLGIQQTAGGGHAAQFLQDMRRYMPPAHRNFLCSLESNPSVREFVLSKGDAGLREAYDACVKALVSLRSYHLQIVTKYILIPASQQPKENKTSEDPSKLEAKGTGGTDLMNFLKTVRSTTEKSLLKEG
Method: (§1) We tested the cellular hIDO1 inhibitory activity and toxicity of 30 active compounds at a single concentration (Figure 6 and Table 8). As some of the aniline derivatives reacted with Ehrlich’s reagent (p-dimethylaminobenzaldehyde, p-DMAB) used to quantify kynurenine, the kynurenine content of these samples was determined by HPLC. To be able to detect also weak inhibition, compounds were tested at the high concentration of 200 µM (Figure 6A and B, filled bars), except for less soluble compounds (52, 148, 149 and 153), which were tested at a concentration of 50 µM (Figure 6A and B, empty bars).
The cDNA encoding hIDO1 (NCBI, NM 0021464.3) was purchased from Origene as pCMV6-Entry vector (RC206592). The full ORF of hIDO1 was cloned into the mammalian expression vector pcDNA6/myc-His from Invitrogen. Human embryonic kidney 293 T (HEK 293 T) cells were transiently transfected with the plasmid construct encoding hIDO1. A 75 cm^2 flask containing HEK 293 T cells at a confluency of 70% was transfected with jetPEI DNA transfection reagent (Polyplus-transfection), according to manufacturer’s protocol. A total of 20 µg of pcDNA-IDO1 along with 5 µg of pcDNA-GFP plasmid were used for the transfection; GFP was used to evaluate transfection efficiency prior to the cellular assays. 16–18 h post-transfection the 293 T cells were detached with trypsin, centrifuged, and re-suspended in 25 mL of DMEM medium without phenol red, supplemented with penicillin and streptomycin, 10% foetal bovine serum and 1 mM pyruvate (Gibco). Subsequently, 100 µL of cells were distributed to each well of two 96-well round-bottom plates that had been pre-loaded with 100 µL DMEM and the small organic test molecule in DMSO (for a final DMSO concentration of 2%). DMEM medium contains 78 µM L-Trp and was supplemented with 500 µM of L-Trp. Cells transfected with hIDO1 were incubated for 7 h at 37 °C in a CO2 incubator. The reaction was stopped in its linear phase by adding trichloroacetic acid (TCA) to the medium at a final concentration of 4%. Plates were centrifuged for 15 min at 4,000 rpm. 100 µL of supernatant was added to 100 µL of 2% (w/v) DMAB in glacial acetic acid. After 10 min the absorbance was measured at a wavelength of 480 nm to detect kynurenine formation. Alternatively, kynurenine content was determined by HPLC as done for the enzymatic assay.

HEK 293 T cells = assay: Cell viability / cellular toxicity (DAPI staining, cytometry); format: cell-based, human; settings: compound 200 µM, 7 h
Method: as §1
Following DMSO (negative control) or inhibitor treatments, apoptotic cells were detected by 4′,6-diamidino-2-phenylindole (DAPI) staining. Briefly, after 7 h of incubation, cells were washed with PBS, resuspended in PBS with 1 µg/mL DAPI and immediately analysed using a BD LSR II cytometer. A 405 nm laser with 450/50 nm bandpass filter was used to collect data.

[1] = target: T2, purified recombinant IDO1 (Homo sapiens, UniProt P14902); assay: Enzymatic IDO1 inhibition assay (ascorbate/methylene blue reduction system, HPLC detection of kynurenine); format: biochemical; settings: for IC50: enzymatic, L-Trp 100 µM, 0.01% Triton X-100, 5% DMSO, 20 min at room temperature, pH 6.5, duplicates, read-out: IC50 [ μ M] (SD); for LE [kcal/mol/HA]: ligand efficiency, LE = -RT log(IC50)/number of heavy atoms, from enzymatic IC50
T2 construct: Full-length human IDO1 gene was cloned into the pET-28a vector; inferred from pET-28a vector and HisTrap purification; made in house; host or cells: E. coli Rosetta (DE3)
T2 sequence (P14902 whole entry): as above
Method: Enzymatic IC50 values were measured with the ascorbate/methylene blue reduction system[85] in presence of a non-ionic detergent to reduce compound aggregation as described before[28]. Kynurenine and L-Trp concentrations were determined by HPLC through UV detection.
Full-length human IDO1 gene was cloned into the pET-28a vector and expressed in E. coli Rosetta (DE3) cells. […] The culture was harvested and frozen at −80 °C until further use. The frozen cells were lysed by sonication in 20 mM Tris pH 7, 400 mM NaCl, 1 mM MgCl2, 20 mM imidazole, 1 mM DTT, 0.5 mg/mL Lysozyme and Protease inhibitor. After centrifugation, the supernatant was loaded into a HisTrap HP column pre-equilibrated with buffer containing 20 mM Tris pH 7, 500 mM NaCl and 20 mM imidazole, and eluted with the same buffer containing 500 mM imidazole. Fractions containing IDO1 were pooled, concentrated, and injected on a size exclusion chromatography column (HiLoad Superdex S75 16/60) to increase purity. hIDO1 fractions were concentrated to 20 mg/mL in 20 mM Tris pH 7 and 150 mM NaCl.
The enzymatic inhibition assays were performed as described by Takikawa et al.[130] with some modifications. Briefly, the reaction mixture (100 µL) contained potassium phosphate buffer (100 mM, pH 6.5) ascorbic acid (20 mM), catalase (400 units/mL), methylene blue (10 µM), purified recombinant IDO1 (2.5 ng/µL), L-Trp (100 µM), Triton X-100 (0.01%) and DMSO (5 µL). The inhibitors were serially diluted 3-fold for at least 8 different concentrations. After incubation at room temperature for 20 min, the reaction was stopped in its linear phase by addition of trichloroacetic acid solution (40 mL, 30% w/v), and the samples were incubated at 50 °C for 30 min. After centrifugation, 80 µl of supernatant from each well were used for HPLC analysis. The mobile phase for HPLC analysis was composed of 50% (v/v) of methanol and 50% of sodium citrate buffer (40 mM, pH 2.4) containing 400 µM sodium dodecyl sulphate. […] All assays were carried out in duplicates. The activity (Act) of each compound was calculated as Act = RT log(IC50) in analogy to the relation between the binding free energy and the Ki value. The ligand efficiency (LE) was calculated as LE = −Act/NHA, where NHA is the number of non-hydrogen atoms (heavy atoms) in the compound.

SMILES | inhibition at 200 µM (hIDO1) | IC50 [1] | LE [kcal/mol/HA] [1] | Tox. [%] (HEK 293 T cells)
COc1ccc(C(=O)c2cnn[nH]2)cc1 [Compound 105, (4-Methoxyphenyl)(1H-1,2,3-triazol-5-yl)methanone] | 22% | 200 µM | 0.34 kcal/mol/HA | 0 (0) %
O=C(c1ccc(Br)cc1)c1cnn[nH]1 [Compound 109, (4-Bromophenyl)(1H-1,2,3-triazol-5-yl)methanone] | 55% | 13 µM | 0.48 kcal/mol/HA | 0 (0) %
Brc1ccc(Nc2c[nH]nn2)cc1 [Compound 78, N-(4-Bromophenyl)-1,2,3-triazol-4-amine, reference compound] | 97% | 52 µM | 0.45 kcal/mol/HA | 0 (0) %
O=C(c1ccoc1)c1cnn[nH]1 [Compound 115, Furan-3-yl(1H-1,2,3-triazol-5-yl)methanone] | 73% | 16 µM | 0.55 kcal/mol/HA | 0 (0) %
O=C(c1cnn[nH]1)c1ccco1 [Compound 114, Furan-2-yl(1H-1,2,3-triazol-5-yl)methanone] | 20% | 230 µM | 0.41 kcal/mol/HA | 0 (0) %
O=C(c1ccc(F)cc1)c1cnn[nH]1 [Compound 110, (4-Fluorophenyl)(1H-1,2,3-triazol-5-yl)methanone] | 12% | 185 µM and 190 µM | 0.36 kcal/mol/HA | 0 (0) %
O=C(c1cnn[nH]1)c1ccccc1O [Compound 106, (2-Hydroxyphenyl)(1H-1,2,3-triazol-5-yl)methanone] | 12% | 125 µM and 130 µM | 0.38 kcal/mol/HA | 0 (0) %
O=C(c1ccsc1)c1cnn[nH]1 [Compound 117, Thiophen-3-yl(1H-1,2,3-triazol-5-yl)methanone] | 23% | 67 µM and 68 µM | 0.47 kcal/mol/HA | 0 (0) %
O=C(c1cccnc1)c1cnn[nH]1 [Compound 121, Pyridin-3-yl(1H-1,2,3-triazol-5-yl)methanone] | 3.9% | 650 µM | 0.33 kcal/mol/HA | 0 (0) %
O=C(c1cscn1)c1cnn[nH]1 [Compound 118, Thiazol-4-yl(1H-1,2,3-triazol-5-yl)methanone] | 17% | 81 µM and 82 µM | 0.46 kcal/mol/HA | 0 (0) %

Further lines, with some results ahead:

inhibition at 200 µM (hIDO1) | IC50 [1] | LE [kcal/mol/HA] [1] | SMILES | Tox. [%] (HEK 293 T cells)
32% | 11 µM | 0.45 kcal/mol/HA | O=C(c1cnn[nH]1)c1ccc(Cl)cc1O [Compound 112, (4-Chloro-2-hydroxyphenyl)(1H-1,2,3-triazol-5-yl)methanone] | 0 (0) %
89% | 425 µM and 420 µM | 0.29 kcal/mol/HA | CC(=O)Nc1ccc(Cl)cc1-c1nc[nH]n1 [Compound 146, N-(4-Chloro-2-(1H-1,2,4-triazol-3-yl)phenyl)acetamide] | 0 (0) %
65% | 51 µM | 0.45 kcal/mol/HA | Clc1ccc(-c2c[nH]nn2)cc1Cl [Compound 49, 4–(3,4-Dichlorophenyl)-1,2,3-triazole] | 0 (0) %
37% | 31 µM | 0.44 kcal/mol/HA | O=C(c1ccc(Cl)cc1)c1cnn[nH]1 [Compound 102, (4-Chlorophenyl)(1H-1,2,3-triazol-5-yl)methanone] | 0 (0) %
56% | 31 µM | 0.47 kcal/mol/HA | Nc1cccc(N)c1-c1nc[nH]n1 [Compound 142, 2-(1H-1,2,4-triazol-3-yl)benzene-1,3-diamine] | 11 (0.4) %
